According to PubChem BioAssay (NCI):
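Five compound concentrations were applied to cells in 96-well plates for 48 hours; endpoints were derived by simple linear interpolation of the resulting dose-response curve. At the TGI there is no net growth.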

How the values were obtained:
SN12K1 renal = test: NCI tumour cell line growth inhibition, 48 h
P388 leukemia = test: NCI tumour cell line growth inhibition, 48 h

SMILES | TGI (SN12K1 renal) [µM] | TGI (P388 leukemia) [µM]
C=C1C(C)C2C(Cc3ccccc3)NC(=O)C23C(OC(C)=O)C=CC(C)(O)C(=O)C(C)C/C=C/C3C1O (centres undefined) | 58.3 | 51.7
COc1cc(C2c3cc4c(cc3[C@@H](Nc3ccc(F)cc3)C3COC(=O)[C@H]23)OCO4)cc(OC)c1O (some centres undefined) | 12.2 | 1.61
